# Results reported in paper PMC6332320, “Factors Influencing Oral Bioavailability of Thai Mango Seed Kernel Extract and Its Key Phenolic Principles” (Molecules, 2015).
# Legend:
# Caco-2 cell lysates = assay: Biological stability in Caco-2 cell lysates; format: in vitro ADME, human; conditions: individual compound 100 µM, HBSS pH 6, up to 24 h
# Description: Caco-2 cells were cultured in T75 flasks at a seeding density of 2 × 10^6 cells/flask for 12–15 days. The cell lysate was freshly prepared by washing the cells twice with ice-cold HBSS at pH 6 (12 mL). The cells were then collected by scraping and resuspending in ice-cold HBSS at pH 6 (7.5 mL/flask). The cell suspension was vortexed and sonicated in an ice water bath for 30 min to obtain the lysate, which was kept on ice until use, and its cellular protein concentration was determined using a BCA™ protein assay kit (Thermo Fisher Scientific, Rockford, IL, USA) with bovine serum albumin as a reference standard.
# Many phenolic compounds were subject to sulfation and glucuronidation by Caco-2 cells at concentrations higher than 20 μM [16, 21, 43] and the metabolites of GA, MG and PGG could not be observed in Caco-2 transport experiment. Therefore, the concentration of the standard pure compounds used in this study was higher than that used in the chemical stability experiment. After preparing the cell lysate, the test compounds were prepared by dissolution in HBSS at pH 6 and then added to the lysates for a final concentration of 1.08 mg/mL protein to obtain final individual concentrations of 100 μM for GA, MG and PGG and 0.75 mg/mL for MSKE, which is equivalent to concentrations of 55.12 ± 4.57 µM GA, 7.56 ± 0.85 µM MG and 110.02 ± 17.52 µM PGG. The mixtures were then incubated in a water bath at 37 °C for 24 h, and samples (50 µL for standard compounds, and 200 µL for MSKE) were collected at 0, 4, 6 and 24 h. Each sample was then added to an ice-cold 50% methanol (150 µL for GA, MG and PGG, and 600 µL for MSKE) to stop the reaction, vortexed and centrifuged at 15,500 rpm for 15 min, and the supernatant was injected into the UPLC for analysis.
# The chemical and biological stabilities of the phenolic compounds were expressed as the concentration of the analyte at different time points relative to the concentration of the same analyte at time zero multiplied by 100 (% recovery).
# [1] = mouse, in vivo, po, 80 mg/kg; cited from earlier work
# Caco-2 cells = conditions: cited from earlier work
# [2] = rat, in vivo, ip, 20 mg/kg; cited from earlier work
smiles,measurement,setting,value
"O=C(OC[C@H]1O[C@@H](OC(=O)c2cc(O)c(O)c(O)c2)[C@H](OC(=O)c2cc(O)c(O)c(O)c2)[C@@H](OC(=O)c2cc(O)c(O)c(O)c2)[C@@H]1OC(=O)c1cc(O)c(O)c(O)c1)c1cc(O)c(O)c(O)c1 [PGG, Pentagalloylglucopyranose]",stability in HBSS at pH 6 (blank control),Caco-2 cell lysates,stable in HBSS at pH 6 for 6 h and slightly degraded within 24 h
same,plasma PGG levels,[1],below the limit of detection
same,Papp AB,Caco-2 cells,0.08 ± 0.03 × 10^−6 cm/s
same,Cmax,[2],6 µM
